The text below walks through data of patent US6613317B1, “Volatile attractants for diabrotica species” (priority 1988, dated 2003).

Assay [1] has as its system western corn rootworm (WCR) adults. As to the kind of experiment: Sticky trap attraction in sweet corn plots (Example 1). It counts as in vivo, Diabrotica virgifera virgifera. Conditions: August first year, single compounds 100 mg per trap. A digest of the protocol: (§1)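 Field trapping in sweet-corn plots beside a Blue Hubbard squash trap crop; lures on mineral-oil-impregnated cotton wicks atop sticky paper-carton traps on 1-m posts, 4 replicates in randomized complete blocks. Beetles counted after 24 h; VIPAE/VIP/TIC mixtures and single components at 1–300 mg per trap, ANOVA/Duncan at P=0.05.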

Assay [2] has as its system NCR. As to conditions: in vivo; cited from earlier work.
Assay [3] concerns southern corn rootworm (SCR) adults. As to the kind of experiment: Sticky trap attraction in sweet corn plots (Example 1). It counts as in vivo, Diabrotica undecimpunctata howardi. As to conditions: August first year, single compounds 100 mg per trap. A digest of the protocol: as §1
In a further assay the test system is WCR. As to the kind of experiment: Limit of response rating of squash blossom volatiles on sticky traps (Example 5). In kind it is in vivo, Diabrotica virgifera virgifera. Conditions: 24 hour; four replicate traps; 0.01 mg to 200 mg. Summed up: (§2)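 Adult Diabrotica beetles were tested against cylindrical sticky traps baited with cotton wicks holding 0.01 mg to 200 mg of individual Cucurbita maxima blossom volatiles. Response limit rated by trap catch.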

In assay [4] the test system is NCR. As to the kind of experiment: Attraction to baited traps relative to controls (summary). As to conditions: summary statement. It counts as in vivo, Diabrotica barberi. The source says: 4-Methylphenylethanol, 4-chlorophenylethanol, 4-fluorophenylethanol, phenylethanol, phenylpropanol, 4-methoxyphenylethanol, 3-methoxyphenylethanol, 2-methoxyphenylethanol, 4-methoxyphenylpropanol, phenylethylamine, and phenylpropylamine attract NCR at rates approximately 5-50 times controls.

In assay [5] the test system is NCR. As to the kind of experiment: Limit of response rating of squash blossom volatiles on sticky traps (Example 5). It counts as in vivo, Diabrotica barberi. As to conditions: 24 hour; four replicate traps; 0.01 mg to 200 mg. A digest of the protocol: as §2
Setting [6] is: South Farms, 24 h, mixture 20 mg of each component, n = 4.

For the compound `C=CCc1ccc(O)c(OC)c1` [XXIV, eugenol], in assay [1] (setting [6]), the “Mean number of WCR per trap (±standard deviation)” value is 2.8 ± 1.0 per trap. The “relative percent activity of the mean WCR trap catch as compared with the highest mean value in the column” value in assay [1] (mixture 20 mg each component) was 41%. In addition, the “LR for NCR, most effective volatile attractant yet identified” value in the assay with NCR [2] is given as 10 mg. Further, the “Mean number of SCR per trap (±standard deviation)” value in assay [3] (setting [6]) is 2.8 ± 2.8 per trap. Besides, in assay [3] (mixture 20 mg each component), the “relative percent activity of the mean SCR trap catch as compared with the highest mean value in the column” value was 13%.

On to `OCC=Cc1ccccc1` [XVIII, cinnamyl alcohol], for which, in the assay on WCR, the “Attractant Rating WCR (by limit of response)” value was “+1 (30-100)”. Moreover, the “rate of attraction of NCR relative to controls” value with NCR [4] is 5-20 times. The “Attractant Rating NCR (by limit of response)” value in the assay with NCR [5] is on record as “+3 (3-10)”.
